In ChEMBL document CHEMBL1201862, “PubChem BioAssay data set” (2004):
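How tested: cells in 96-well plates exposed to compound for 48 hours at five concentrations. Here, GI50 denotes the concentration required for 50% inhibition of growth.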 Activity calls are given as the source filed them. Cut-off read from the data, not from the text of the source: active = GI50 up to about 1.1 µM and inactive = higher.

Key:
Assay in all cases: inhibition of tumour cell growth, NCI panel, 48 h
786-0 = system: 786-0
A549 = system: A549
CAKI-1 = system: CAKI-1
KM12 = system: KM12
MOLT-4 = system: MOLT-4
Malme-3M = system: Malme-3M
NCI-H226 = system: NCI-H226
NCI-H23 = system: NCI-H23
NCI-H460 = system: NCI-H460
NCI-H522 = system: NCI-H522
OVCAR-3 = system: OVCAR-3
OVCAR-5 = system: OVCAR-5
OVCAR-8 = system: OVCAR-8
SK-MEL-28 = system: SK-MEL-28
SK-MEL-2 = system: SK-MEL-2
TK-10 = system: TK-10
UACC-257 = system: UACC-257
HOP-92 = system: HOP-92
K562 = system: K562
UO-31 = system: UO-31

Measured: GI50

OCCNCCN1CCN(CCCN2c3ccccc3Sc3ccc(C(F)(F)F)cc32)CC1
inactive: 786-0 17.3 µM | A549 24 µM | CAKI-1 76.2 µM | KM12 27.2 µM | MOLT-4 > 100 µM | Malme-3M 29.5 µM | NCI-H226 26.5 µM | NCI-H23 27.2 µM | NCI-H460 23.2 µM | NCI-H522 19.2 µM | OVCAR-3 22.7 µM | OVCAR-5 25.5 µM | OVCAR-8 18 µM | SK-MEL-28 23.6 µM | SK-MEL-2 21.5 µM | TK-10 22.1 µM | UACC-257 20.3 µM

CCC(CC)n1c(C)nc2c1C(=O)c1ccccc1C2=O
inactive: 786-0 57.1 µM | A549 35.3 µM | HOP-92 22.5 µM | K562 21.1 µM | KM12 36.9 µM | MOLT-4 41.2 µM | Malme-3M 26.1 µM | NCI-H226 72.8 µM | NCI-H23 21.5 µM | NCI-H460 20.7 µM | NCI-H522 48.1 µM | OVCAR-3 26 µM | OVCAR-8 40.5 µM | SK-MEL-28 49.3 µM | SK-MEL-2 27.6 µM | TK-10 35.9 µM | UACC-257 24 µM | UO-31 19.5 µM

Cc1nn(C(=O)Cc2ccccc2)c2c1C(c1ccc(O)cc1O)SC(=N)N2 (stereo unspecified)
inactive: 786-0 > 100 µM | A549 > 100 µM | CAKI-1 > 100 µM | KM12 > 100 µM | MOLT-4 > 100 µM | Malme-3M > 100 µM | NCI-H226 > 100 µM | NCI-H23 > 100 µM | NCI-H460 > 100 µM | NCI-H522 > 100 µM | OVCAR-8 > 100 µM | SK-MEL-28 > 100 µM | TK-10 > 100 µM | UACC-257 > 100 µM | UO-31 > 100 µM

COc1cc2c(cc1OC)C(=O)N(NC1=NCCN1)C2=O
inactive: 786-0 > 100 µM | A549 > 100 µM | CAKI-1 > 100 µM | K562 > 100 µM | KM12 > 100 µM | MOLT-4 > 100 µM | Malme-3M > 100 µM | NCI-H226 > 100 µM | NCI-H23 > 100 µM | NCI-H460 > 100 µM | NCI-H522 > 100 µM | OVCAR-3 > 100 µM | OVCAR-5 > 100 µM | OVCAR-8 > 100 µM | SK-MEL-28 > 100 µM | SK-MEL-2 > 100 µM | TK-10 > 100 µM | UACC-257 > 100 µM

Cc1ccc(/N=N/c2ccc(N(CCC#N)CCC#N)cc2C)c(Br)c1
inactive: 786-0 17 µM | A549 21.5 µM | CAKI-1 2.38 µM | K562 3.13 µM | KM12 3.5 µM | MOLT-4 7.5 µM | Malme-3M 44.2 µM | NCI-H226 17.2 µM | NCI-H23 21.3 µM | NCI-H522 18.5 µM | OVCAR-3 32.6 µM | OVCAR-5 56 µM | OVCAR-8 49.3 µM | SK-MEL-28 51.3 µM | SK-MEL-2 16.9 µM | TK-10 16.7 µM | UACC-257 26 µM | UO-31 16.9 µM

OC1(CCc2ccccc2)COC(C(F)(F)F)(C(F)(F)F)C1 (stereo unspecified)
inactive: 786-0 > 100 µM | A549 > 100 µM | CAKI-1 > 100 µM | K562 > 100 µM | KM12 > 100 µM | MOLT-4 > 100 µM | Malme-3M > 100 µM | NCI-H226 > 100 µM | NCI-H23 > 100 µM | NCI-H460 > 100 µM | NCI-H522 > 100 µM | OVCAR-3 > 100 µM | OVCAR-5 > 100 µM | OVCAR-8 > 100 µM | SK-MEL-28 > 100 µM | SK-MEL-2 > 100 µM | TK-10 > 100 µM | UO-31 > 100 µM

CCc1nc2c(n1CC)C(=O)c1ccccc1C2=O
inactive: 786-0 > 100 µM | A549 43.2 µM | HOP-92 63.2 µM | K562 44.5 µM | KM12 45.3 µM | MOLT-4 33.9 µM | Malme-3M 15.5 µM | NCI-H226 28.6 µM | NCI-H23 46.8 µM | NCI-H460 39.1 µM | NCI-H522 31.6 µM | OVCAR-3 18.7 µM | OVCAR-5 47.2 µM | OVCAR-8 32.8 µM | SK-MEL-28 56.1 µM | TK-10 22.1 µM | UACC-257 25.4 µM

CSC1=N/C(=C\c2c[nH]c3ccccc23)C(=O)N1
inactive: 786-0 84.3 µM | A549 69.8 µM | HOP-92 > 100 µM | K562 75.9 µM | MOLT-4 > 100 µM | Malme-3M 36.1 µM | NCI-H226 > 100 µM | NCI-H23 > 100 µM | NCI-H460 49.7 µM | OVCAR-3 85.3 µM | OVCAR-5 > 100 µM | OVCAR-8 > 100 µM | SK-MEL-28 > 100 µM | SK-MEL-2 35.8 µM | TK-10 66.7 µM | UACC-257 > 100 µM | UO-31 35.8 µM

O=c1ccc2ccc(OP(=O)(O)O)cc2o1
inactive: 786-0 > 100 µM | A549 > 100 µM | CAKI-1 > 100 µM | K562 > 100 µM | KM12 > 100 µM | MOLT-4 > 100 µM | Malme-3M > 100 µM | NCI-H226 > 100 µM | NCI-H23 > 100 µM | NCI-H460 > 100 µM | NCI-H522 > 100 µM | OVCAR-3 > 100 µM | OVCAR-5 > 100 µM | OVCAR-8 > 100 µM | SK-MEL-28 > 100 µM | SK-MEL-2 > 100 µM | TK-10 > 100 µM | UACC-257 > 100 µM | UO-31 > 100 µM

CCNC1CC(C(C)(C)NCC)CC=C1C (stereo unspecified)
inactive: 786-0 > 100 µM | A549 > 100 µM | HOP-92 > 100 µM | K562 > 100 µM | KM12 > 100 µM | MOLT-4 > 100 µM | NCI-H23 > 100 µM | NCI-H460 > 100 µM | NCI-H522 > 100 µM | OVCAR-3 > 100 µM | OVCAR-5 > 100 µM | OVCAR-8 > 100 µM | SK-MEL-28 > 100 µM | TK-10 > 100 µM | UACC-257 > 100 µM | UO-31 > 100 µM

COC(=O)C(C(=O)C(=O)Nc1nc2ccc([N+](=O)[O-])cc2s1)c1nc2ccc(Cl)cc2nc1O (stereo unspecified)
inactive: 786-0 > 100 µM | A549 > 100 µM | CAKI-1 71.3 µM | K562 > 100 µM | KM12 > 100 µM | MOLT-4 > 100 µM | Malme-3M > 100 µM | NCI-H226 > 100 µM | NCI-H23 > 100 µM | NCI-H460 > 100 µM | NCI-H522 > 100 µM | OVCAR-3 > 100 µM | OVCAR-5 > 100 µM | OVCAR-8 > 100 µM | SK-MEL-28 > 100 µM | SK-MEL-2 > 100 µM | TK-10 > 100 µM | UACC-257 > 100 µM | UO-31 > 100 µM

COCC1OC(N2C(=O)NC(=O)[C@@H]3C=C4CCCCC4=C[C@@H]32)C(OC)C1OC (stereo partly specified)
inactive: 786-0 > 100 µM | A549 > 100 µM | HOP-92 75 µM | K562 > 100 µM | KM12 > 100 µM | MOLT-4 > 100 µM | Malme-3M > 100 µM | NCI-H226 > 100 µM | NCI-H460 > 100 µM | NCI-H522 > 100 µM | OVCAR-3 > 100 µM | OVCAR-5 > 100 µM | OVCAR-8 > 100 µM | SK-MEL-28 > 100 µM | SK-MEL-2 > 100 µM | TK-10 > 100 µM | UACC-257 > 100 µM | UO-31 98.9 µM

CCCCCCCCOC1C(O)C(O)C(O)C(O)C12CO2 (stereo unspecified)
inactive: 786-0 73.8 µM | A549 49.5 µM | CAKI-1 90.4 µM | K562 38.5 µM | KM12 43.9 µM | MOLT-4 38.9 µM | Malme-3M 57.5 µM | NCI-H226 86.1 µM | NCI-H23 16.1 µM | NCI-H460 45.4 µM | NCI-H522 26.7 µM | OVCAR-3 50.4 µM | OVCAR-5 > 10 µM | OVCAR-8 62.7 µM | SK-MEL-28 > 100 µM | SK-MEL-2 53.8 µM | TK-10 > 100 µM | UACC-257 > 100 µM | UO-31 78 µM

Cc1ccc(NC(=O)CCC(CC(=O)C(C)(C)C)=NNC(=O)C(=O)NN)cc1C
inactive: 786-0 > 100 µM | A549 > 100 µM | CAKI-1 > 100 µM | K562 > 100 µM | KM12 > 100 µM | MOLT-4 > 100 µM | Malme-3M > 100 µM | NCI-H226 > 100 µM | NCI-H23 > 100 µM | NCI-H460 > 100 µM | NCI-H522 > 100 µM | OVCAR-3 > 100 µM | OVCAR-5 > 100 µM | OVCAR-8 > 100 µM | SK-MEL-28 > 100 µM | SK-MEL-2 > 100 µM | TK-10 > 100 µM | UACC-257 > 100 µM | UO-31 > 100 µM

CC(C)(C)[C@H]1NC(=O)CN1C(=O)OCc1ccccc1
inactive: 786-0 > 100 µM | A549 > 100 µM | HOP-92 5.12 µM | K562 66.7 µM | KM12 > 100 µM | MOLT-4 > 100 µM | Malme-3M > 100 µM | NCI-H226 > 100 µM | NCI-H23 > 100 µM | NCI-H460 > 100 µM | NCI-H522 > 100 µM | OVCAR-5 > 100 µM | OVCAR-8 > 100 µM | SK-MEL-28 > 100 µM | SK-MEL-2 > 100 µM | TK-10 > 100 µM | UACC-257 98.9 µM | UO-31 9.35 µM
